Earlier results in PMC7756498 (Chemistry (Weinheim an Der Bergstrasse, Germany), 2020).

Tested on: P. aeruginosa
Conditions: ref [18]

sansanmycin B [sansanmycin B 13]
MIC (anti-Pseudomonas activity): 4 to 16 µg/mL
